Data: publication PMC12567248 (Pharmaceutics, 2025)
Read-outs that look alike come from different tables or passages of the source.

Columns and labels:
[1] = In vitro drug release study, sample and separation method, with release model fitting; type: physicochemical; conditions: 37.5 °C
Description: The release media used were ultrapure water, 0.1 N phosphate-buffered saline (PBS) pH 7.4 for simulated blood pH, PBS pH 6.8 for simulated intestinal fluid, and 0.1 N HCl pH 2.0 for simulated gastric fluid. […] The setup was stirred at 75 rpm at 37.5 ± 0.5 °C. […] A fresh amount of the media was used to compensate for the amount of the release media taken at every time point. The aliquots were centrifuged at 5000 rpm for 10 min. The supernatant liquid was stored for syringic acid quantification using HPLC analysis, while the pellets were returned to the setup. The cumulative amount of syringic acid released from the MIL-100(Fe) was utilized to predict and correlate the behavior of the in vitro release. The experimental data were fitted to five predictable models: zero-order, first-order, Higuchi, Korsmeyer–Peppas, and Hixson–Crowell models. Data fitting was performed by linear regression using Microsoft Excel. The correlation coefficient (r^2) was utilized as a criterion for selecting the best model that describes the release profile in the three media. An r^2 value close to 1 signifies the best correlation.

[2] = cited from earlier work
[3] = Tissue distribution of syringic acid in liver and kidney; type: in vivo, Sprague Dawley rats; conditions: for Cmax / Tmax / half-life: Sprague Dawley, rat; for AUC0–72 / AUC0–∞: 100 mg kg^−1 syringic acid or equivalent amount in SYA@MIL-100(Fe)
Description: (§1) The reduction in the dosing for the intraperitoneal route is to prevent abdominal distress in the test animal post-administration.
After the blood collection from the test animals, the animals were euthanized, and the organs, such as the liver and kidneys, were taken. The organs were pat-dried and weighed to determine the amount of NSS to be used for homogenization (1 mL of NSS per 700 mg of organ). The organs were homogenized and mixed with equal amounts of absolute ethanol. The mixture was centrifuged at 5000 rpm for 10 min. The serum samples were supplemented with an equal amount of absolute ethanol to facilitate the precipitation of proteins. This procedure was performed until no precipitation occurred. The supernatant was allowed to dry under reduced pressure before HPLC analysis.
(§2) Samples were prepared using the mobile phase consisting of 80:20 water with 0.1% acetic acid: methanol. HPLC analysis was performed using a linear gradient elution at a flow rate of 1.0 mL min^−1. The gradient program started at 80:20 (water with 0.1% acetic acid: methanol) and linearly progressed to 40:60 over 10 min. The column oven temperature was maintained at 30 °C. Detection was carried out using a PDA detector set at 218 nm.

[4] = rabbits, printed as administered intravenously; cited from earlier work
[5] = Oral and intraperitoneal bioavailability, syringic acid in blood; type: in vivo, Sprague Dawley rats; conditions: Sprague Dawley, rat, serum; for AUC(0-t): read-out: AUC0–72 (converted)
Description: as §1
After the given time points, the test animals were sedated using Zoletil 50 (50 mg tiletamine base, 50 mg zolazepam base, and 57.7 mg mannitol per mL) at a dose of […] before blood extraction using the cardiac puncture method. The blood was allowed to clot and centrifuged at 4000 rpm at 4 °C for 5 min to obtain the serum. The sera were mixed with an equal amount of methanol to precipitate proteins and centrifuged again to obtain the deproteinized sera. The procedure was repeated until no precipitation with methanol occurred. The protein-free sera were dried under reduced pressure for prior analysis using HPLC.
as §2

[6] = test system: Male Sprague Dawley Rats; assay: Acute oral toxicity, OECD procedure 423; conditions: rat, in vivo
Description: Acute oral toxicity was analyzed in accordance with the OECD guidelines for testing chemical compounds using the acute toxic class method (OECD procedure 423). Prior to dosing, 1 mL of the blood was extracted from the test animals (Male Sprague Dawley Rats, 200–250 g) using the tail vein method and was submitted for alanine aminotransferase (ALT), aspartate aminotransferase (AST), and blood urea nitrogen (BUN), and creatinine level determinations for signs of liver and kidney damages, respectively. […] Since no test animals were recorded to show any signs of toxicity or death, an additional three test animals were given the same dose. […] After the 14 days of observation, the test animals were sedated using Zoletil 50 (50 mg tiletamine base, 50 mg zolazepam base, and 57.7 mg mannitol per mL) at a dose of 50 mg kg^−1 prior to blood extraction using the cardiac puncture method. The animals were euthanized using a carbon dioxide chamber. The blood samples were analyzed for liver and kidney functions. The major organs, such as the liver and kidneys of the test animals, were harvested for tissue mounting and histopathological analysis.

In the case of COc1cc(C(=O)O)cc(OC)c1O [Syringic Acid, 3,5-Dimethoxy-4-hydroxybenzoic acid], the “cumulative release of syringic acid” value ([1]; 0.1 N HCl, after 30 h) is reported as 110.99%, the “cumulative release of syringic acid” value ([1]; PBS pH 6.8, after 30 h) is reported as 110.93% and the “cumulative release of syringic acid” value ([1]; PBS pH 7.4, after 30 h) is reported as 117.55%. For the same molecule, the “cumulative release of syringic acid” value ([1]; water, after 30 h) was 94.67%, the Cmax [2] was 4500 ± 40 ng/mL and the Tmax [2] was 8 min. The area under the curve [2] was 2010 ± 48.7 ng·h/mL, the Cmax ([3]; 100 mg kg^−1, kidney, oral, read-out: maximum concentration (Cmax)) was 105000 ± 9790 ng/g and the Cmax ([3]; 100 mg kg^−1, liver, oral) was 163000 ng/g. The Cmax ([3]; ip, 25 mg kg^−1, kidney, intraperitoneal, read-out: Cmax) was 218000 ± 8730 ng/g, the Cmax ([3]; ip, 25 mg kg^−1, liver, intraperitoneal, read-out: Cmax) was 40100 ± 560 ng/g and the Tmax ([3]; kidney, ip, 25 mg kg^−1) was 0.402 h. The half-life ([3]; kidney, ip, 25 mg kg^−1) was 80.1 ± 54.5 h, the Tmax ([3]; kidney, po, 100 mg/kg) was 0.47 h and the half-life ([3]; kidney, po, 100 mg/kg) was 0.626 ± 0.0782 h. It also gave a Cmax ([3]; kidney, po, 100 mg/kg, read-out: Cmax) of 105000 ± 9790 ng/g, a Tmax ([3]; liver, ip, 25 mg kg^−1) of 0.412 h and a half-life ([3]; liver, ip, 25 mg kg^−1) of 30.9 ± 18.4 h. It also gave a Tmax ([3]; liver, po, 100 mg/kg) of 8.6 h, a half-life ([3]; liver, po, 100 mg/kg) of 38.1 ± 13.5 h and a Cmax ([3]; liver, po, 100 mg/kg, read-out: Cmax) of 16300 ± 3540 ng/g. For the same molecule, the “AUC0–72” value ([3]; kidney, oral) was 77,103.33 ± 2531.03 μg min g^−1, the “AUC0–∞” value ([3]; kidney, oral) was 78,035.27 ± 2458.81 μg min g^−1 and the “AUC0–72” value ([3]; liver, oral) was 32,000.33 ± 3544.16 μg min g^−1. The “AUC0–∞” value ([3]; liver, oral) was 47,401.91 ± 8515.77 μg min g^−1, the absolute bioavailability [4] was 86.27% and the Tmax ([5]; ip, 25 mg kg^−1) was 0.933 h. It also gave a half-life ([5]; ip, 25 mg kg^−1) of 16.7 ± 6.83 h, an AUC(0-t) ([5]; ip, 25 mg kg^−1) of 72800 ng·h/mL and a half-life ([5]; po, 100 mg/kg) of 1.98 ± 0.513 h. For the same molecule, the AUC(0-t) ([5]; po, 100 mg/kg) was 23600 ng·h/mL, the BUN before administration [6] was 14.71 ± 0.51 mg per dL and the SGOT before administration [6] was 337.30 ± 34.87 units per liter. For the same molecule, the SGPT before administration [6] was 87.96 ± 14.9 units per liter and the “serum creatinine before administration” value [6] was 0.58 ± 0.01 mg per dL.
